Several values for one entry are separate records, joined by “and”; a condition that tells them apart may be missing. Equal entries are not always repeated.
How the values were obtained:
[1] = target: Somatostatin receptor type 2 (Mus musculus, UniProt P30875); test: In vitro binding affinity was evaluated against mouse Somatostatin receptor type 2 (mSSTR-2)
[2] = target: T1, Somatostatin receptor type 2 (Homo sapiens, UniProt P30874); test: In vitro binding affinity was evaluated against human Somatostatin receptor type 2 (hSSTR-2)
[3] = target: T1, Somatostatin receptor type 2; test: In vitro binding affinity was evaluated against human Somatostatin receptor type 2 in experiment 1
[4] = target: T1, Somatostatin receptor type 2; test: In vitro binding affinity was evaluated against human Somatostatin receptor type 2 in experiment 2
[5] = Bioavailability; type: ADME, organism-based, Canis lupus familiaris; conditions: beagle, dog, in vivo
[6] = target: Somatostatin receptor type 4 (Homo sapiens, UniProt P31391); test: In vitro binding affinity was evaluated against human Somatostatin receptor type 4 (hSSTR-4)
[7] = Area under curve after 2 mpk peroral administration to beagles; type: ADME, Canis lupus familiaris; conditions: Beagle, dog, in vivo, po, 2 mg/kg
[8] = target: Somatostatin receptor type 5 (Homo sapiens, UniProt P35346); test: In vitro binding affinity was evaluated against human Somatostatin receptor type 5 (hSSTR-5)
[9] = target: Somatostatin receptor type 3 (Homo sapiens, UniProt P32745); test: In vitro binding affinity was evaluated against human Somatostatin receptor type 3 (hSSTR-3)
[10] = Cmax value after 2 mpk peroral administration to beagles; type: ADME, organism-based, Canis lupus familiaris; set-up: dose 2 mpk, route oral; conditions: Beagle, dog, in vivo, po, 2 mg/kg
[11] = target: Somatostatin receptor type 1 (Homo sapiens, UniProt P30872); test: In vitro binding affinity was evaluated against human Somatostatin receptor type 1 (hSSTR-1)
[12] = Bioavailability after 2 mpk peroral administration to beagles; type: ADME, organism-based, Canis lupus familiaris; conditions: Beagle, dog, in vivo, po, 2 mg/kg
[13] = Area under curve after 1 mpk peroral administration to beagles; type: ADME, Canis lupus familiaris; conditions: Beagle, dog, in vivo, po, 1 mg/kg
[14] = Cmax value after 1 mpk peroral administration to beagles; type: ADME, organism-based, Canis lupus familiaris; set-up: dose 1 mpk, route oral; conditions: Beagle, dog, in vivo, po, 1 mg/kg
[15] = Bioavailability after 1 mpk peroral administration to beagles; type: ADME, organism-based, Canis lupus familiaris; conditions: Beagle, dog, in vivo, po, 1 mg/kg
Rattus norvegicus = organism: Rattus norvegicus; test: Compound tested for the inhibition of growth hormone release was determined using primary cultures of rat anterior pituitary cells; type: functional, cell-based; conditions: Pituitary gland cell

T1 sequence (P30874 whole entry): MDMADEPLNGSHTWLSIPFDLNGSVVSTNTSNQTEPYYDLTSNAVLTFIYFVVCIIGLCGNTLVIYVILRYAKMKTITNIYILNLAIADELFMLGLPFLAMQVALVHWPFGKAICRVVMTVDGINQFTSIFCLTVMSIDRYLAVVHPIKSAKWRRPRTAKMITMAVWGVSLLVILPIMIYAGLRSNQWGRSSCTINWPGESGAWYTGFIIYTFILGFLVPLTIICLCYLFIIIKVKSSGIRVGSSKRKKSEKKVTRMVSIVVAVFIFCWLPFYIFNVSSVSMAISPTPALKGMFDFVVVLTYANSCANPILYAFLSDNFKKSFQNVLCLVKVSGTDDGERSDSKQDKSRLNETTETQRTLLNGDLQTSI
Somatostatin receptor type 2 (Mus musculus, UniProt P30875), sequence (P30875 whole entry): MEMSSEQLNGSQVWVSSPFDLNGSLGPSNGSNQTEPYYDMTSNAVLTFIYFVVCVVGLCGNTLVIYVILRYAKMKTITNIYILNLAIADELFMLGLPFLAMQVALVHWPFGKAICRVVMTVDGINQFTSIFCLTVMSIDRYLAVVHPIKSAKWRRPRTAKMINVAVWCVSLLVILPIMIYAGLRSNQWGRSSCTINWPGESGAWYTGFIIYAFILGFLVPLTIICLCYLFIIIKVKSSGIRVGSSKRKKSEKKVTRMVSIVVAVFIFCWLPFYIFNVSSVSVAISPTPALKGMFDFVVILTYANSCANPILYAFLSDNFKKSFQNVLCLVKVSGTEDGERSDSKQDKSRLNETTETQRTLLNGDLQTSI
Somatostatin receptor type 3, sequence (P32745 whole entry): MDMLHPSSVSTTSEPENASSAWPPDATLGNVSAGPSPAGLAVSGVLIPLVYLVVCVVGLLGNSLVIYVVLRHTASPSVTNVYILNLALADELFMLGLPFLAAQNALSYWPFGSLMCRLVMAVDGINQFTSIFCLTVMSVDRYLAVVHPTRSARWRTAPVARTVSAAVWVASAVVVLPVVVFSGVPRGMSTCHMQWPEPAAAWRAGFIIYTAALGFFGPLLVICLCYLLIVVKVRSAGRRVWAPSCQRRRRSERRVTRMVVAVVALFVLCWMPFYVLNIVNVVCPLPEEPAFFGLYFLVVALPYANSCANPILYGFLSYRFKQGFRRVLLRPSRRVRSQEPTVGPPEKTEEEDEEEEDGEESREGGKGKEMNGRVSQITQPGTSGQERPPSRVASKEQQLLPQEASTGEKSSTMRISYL
Somatostatin receptor type 4, sequence (P31391 whole entry): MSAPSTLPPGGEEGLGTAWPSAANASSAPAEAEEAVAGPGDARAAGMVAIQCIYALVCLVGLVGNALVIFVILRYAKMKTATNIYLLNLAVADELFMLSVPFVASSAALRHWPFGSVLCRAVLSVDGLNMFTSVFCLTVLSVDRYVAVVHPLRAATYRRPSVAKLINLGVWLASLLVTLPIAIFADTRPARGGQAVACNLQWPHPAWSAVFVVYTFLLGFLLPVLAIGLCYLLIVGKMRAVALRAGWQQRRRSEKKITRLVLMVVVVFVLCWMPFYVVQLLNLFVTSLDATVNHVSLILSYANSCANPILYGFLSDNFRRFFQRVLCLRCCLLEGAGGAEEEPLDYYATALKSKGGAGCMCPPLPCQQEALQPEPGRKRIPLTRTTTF
Somatostatin receptor type 1, sequence (P30872 whole entry): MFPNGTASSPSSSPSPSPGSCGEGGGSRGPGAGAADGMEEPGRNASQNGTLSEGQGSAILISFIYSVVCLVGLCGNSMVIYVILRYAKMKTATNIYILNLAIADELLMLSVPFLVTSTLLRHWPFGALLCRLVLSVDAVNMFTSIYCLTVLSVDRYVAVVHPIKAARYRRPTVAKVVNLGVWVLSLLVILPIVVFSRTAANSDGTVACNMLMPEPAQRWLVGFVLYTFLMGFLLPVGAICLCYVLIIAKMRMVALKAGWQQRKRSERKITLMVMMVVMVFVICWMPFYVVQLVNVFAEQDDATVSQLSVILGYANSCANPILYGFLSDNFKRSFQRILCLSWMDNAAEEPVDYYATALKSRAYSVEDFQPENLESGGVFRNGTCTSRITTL

With `CN(C(=O)N1CCC2(CCc3ccccc32)CC1)[C@H](Cc1c[nH]c2ccccc12)C(=O)NCCCCCN` as the molecule, how does the Ki [1] read?
The Ki was greater than 10 nM.

With `COC(=O)[C@@H](CCCCN)NC(=O)[C@@H](Cc1c[nH]c2ccccc12)OC(=O)N1CCC2(CCc3ccccc32)CC1` as the molecule, how does the Ki [1] read?
The Ki was 10 nM.

For `NCCCCCNC(=O)[C@@H](Cc1c[nH]c2ccccc12)NC(=O)N1CCC2(CCc3ccccc32)CC1`, which Ki [1] is on record?
Its Ki is 10 nM.

Which Ki [2] does the source give for `C[C@@H](c1c[nH]c2ccccc12)[C@H](C(=O)N[C@H](CCCCN)C(=O)OC(C)(C)C)N1CCN(c2cccc(-c3ccccc3)c2)C1=O` here?
Its Ki is 80 nM.

With `C[C@@H](c1c[nH]c2ccccc12)[C@H](C(=O)N[C@H](CCCCN)C(=O)OC(C)(C)C)N1CCN(C2CCC(c3ccccc3)CC2)C1=O` (stereo partly drawn) as the molecule, how does the Ki [3] read?
The Ki was 40 nM.

And the Ki [4]?
Its Ki is 6.3 nM.

Which results are given for `C[C@@H](c1c[nH]c2ccccc12)[C@H](C(=O)NC[C@H]1OC[C@H](N)CO1)N1CCN(Cc2ccc(Cl)c(Cl)c2)C1=O`?
Ki [2]: 7.3 nM; bioavailability [5]: 21%

For `CC(CCN1CCN([C@@H](C(=O)N[C@H](CCCCN)C(=O)OC(C)(C)C)[C@@H](C)c2c[nH]c3ccccc23)C1=O)c1ccccc1` (stereo partly drawn), which Ki [2] is on record?
Its Ki is 5.9 nM.

Which Ki [1] does the source give for `COC(=O)[C@@H](CCCCN)NC(=O)[C@@H](Cc1c[nH]c2ccccc12)NC(=O)N1CCC2(CCc3ccccc32)CC1` here?
Its Ki is 2 nM.

For `C[C@@H](c1c[nH]c2ccccc12)[C@H](C(=O)N[C@H](CCCCN)C(=O)OC(C)(C)C)N1CCN(CCCc2ccccc2)C1=O`, which Ki [6] is on record?
The Ki was 83 nM.

And the Ki [2]?
The Ki was 3.6 nM.

And the AUC [7]?
Its AUC is 837 ng·h/mL.

And the Ki [8]?
Its Ki is 284 nM.

And the Ki [9]?
Its Ki is 1290 nM.

What about the Cmax [10] of the same molecule?
Its Cmax is 350 ng/mL.

What about the Ki [11] of the same molecule?
The Ki was 712 nM.

What about the bioavailability [12] of the same molecule?
Its bioavailability is 5%.

What does the source list for `C[C@@H](c1c[nH]c2ccccc12)[C@@H](NC(=O)N(C)CCCc1ccccc1)C(=O)N[C@H](CCCCN)C(=O)OC(C)(C)C`?
AUC [13]: 333 ng·h/mL; Ki [2]: 2.2 nM; Cmax [14]: 103 ng/mL

For `C[C@@H](c1c[nH]c2ccccc12)[C@H](C(=O)NC[C@H]1OC[C@H](N)CO1)N1CCN(CCCc2ccccc2)C1=O`, which Ki [2] is on record?
Its Ki is 18 nM.

With `C[C@@H](c1c[nH]c2ccccc12)[C@H](C(=O)N[C@H](CCCCN)C(=O)OC(C)(C)C)N1CCN(CCc2ccccc2)C1=O` as the molecule, how does the Ki [2] read?
The Ki was 47 nM.

Which Ki [2] does the source give for `C[C@@H](c1c[nH]c2ccccc12)[C@H](C(=O)N[C@H](CCCCN)C(=O)OC(C)(C)C)N1CCN(Cc2ccccc2)C1=O` here?
Its Ki is 14 nM.

Which Ki [2] does the source give for `C[C@@H](c1c[nH]c2ccccc12)[C@H](C(=O)NC[C@H]1OC[C@H](N)CO1)N1CCN(CCC(c2ccccc2)c2ccccc2)C1=O` here?
Its Ki is 8.5 nM and 1.1 nM.

With `C[C@@H](c1c[nH]c2ccccc12)[C@H](C(=O)NC[C@H]1OC[C@H](N)CO1)N1CCN(CCc2cccc3ccccc23)C1=O` as the molecule, how does the Ki [2] read?
Its Ki is 122 nM.

With `C[C@@H](c1c[nH]c2ccccc12)[C@H](C(=O)NC[C@H]1OC[C@H](N)CO1)N1CCN(CCCn2c(O)nc3ccccc32)C1=O` as the molecule, how does the Ki [2] read?
Its Ki is 40 nM.

For `C[C@@H](c1c[nH]c2ccccc12)[C@H](C(=O)N[C@H](CCCCN)C(=O)OC(C)(C)C)N1CCN(Cc2ccc(C(F)(F)F)cc2)C1=O`, which Ki [2] is on record?
The Ki was 1.3 nM.

And the bioavailability [5]?
Its bioavailability is 3%.

For `CC(CCc1ccccc1)N1CCN([C@@H](C(=O)N[C@H](CCCCN)C(=O)OC(C)(C)C)[C@@H](C)c2c[nH]c3ccccc23)C1=O` (stereo partly drawn), which Ki [2] is on record?
Its Ki is 12 nM.

For `C[C@@H](c1c[nH]c2ccccc12)[C@H](C(=O)N[C@H](CCCCN)C(=O)OC(C)(C)C)N1CCN(C2CCCN(c3ccccc3)C2)C1=O` (stereo partly drawn), which Ki [2] is on record?
The Ki was 1.4 nM.

Which Ki [2] does the source give for `C[C@@H](c1c[nH]c2ccccc12)[C@H](C(=O)N(C)C[C@H]1OC[C@H](N)CO1)N1CCN(CCC(c2ccccc2)c2ccccc2)C1=O` here?
The Ki was 4.6 nM.

With `C[C@@H](c1c[nH]c2ccccc12)[C@@H](NC(=O)NCCCc1ccccc1)C(=O)N[C@H](CCCCN)C(=O)OC(C)(C)C` as the molecule, how does the AUC [13] read?
The AUC was 314 ng·h/mL.

And the Ki [2]?
The Ki was 1 nM.

What about the bioavailability [15] of the same molecule?
The bioavailability was 1%.

What about the Cmax [14] of the same molecule?
The Cmax was 86 ng/mL.

With `C[C@@H](c1c[nH]c2ccccc12)[C@H](C(=O)N(C)C[C@H]1OC[C@H](N)CO1)N1CCN(CCCc2ccccc2)C1=O` as the molecule, how does the Ki [2] read?
Its Ki is 11 nM.

For `C[C@@H](c1c[nH]c2ccccc12)[C@H](C(=O)N(C)C[C@H]1OC[C@H](N)CO1)N1CCN(C2CCCN(c3ccccc3)C2)C1=O` (stereo partly drawn), which IC50 (Rattus norvegicus) is on record?
The IC50 was 70 nM.

What about the Ki [3] of the same molecule?
Its Ki is 2.1 nM.

And the Ki [4]?
Its Ki is 14 nM.

What about the Ki [8] of the same molecule?
The Ki was 1400 nM.

What about the Ki [9] of the same molecule?
Its Ki is greater than 10000 nM.

What about the bioavailability [5] of the same molecule?
Its bioavailability is 15%.

From ChEMBL document CHEMBL1132396, “Potent, orally bioavailable somatostatin agonists: good absorption achieved by urea backbone cyclization” (Bioorg Med Chem Lett, 1999)
